Results on 46 molecules are retold here after publication PMC5607274, “An iterative compound screening contest method for identifying target protein inhibitors using the tyrosine-protein kinase Yes” (Scientific Reports, 2017).

T1 sequence (P07947 2-543): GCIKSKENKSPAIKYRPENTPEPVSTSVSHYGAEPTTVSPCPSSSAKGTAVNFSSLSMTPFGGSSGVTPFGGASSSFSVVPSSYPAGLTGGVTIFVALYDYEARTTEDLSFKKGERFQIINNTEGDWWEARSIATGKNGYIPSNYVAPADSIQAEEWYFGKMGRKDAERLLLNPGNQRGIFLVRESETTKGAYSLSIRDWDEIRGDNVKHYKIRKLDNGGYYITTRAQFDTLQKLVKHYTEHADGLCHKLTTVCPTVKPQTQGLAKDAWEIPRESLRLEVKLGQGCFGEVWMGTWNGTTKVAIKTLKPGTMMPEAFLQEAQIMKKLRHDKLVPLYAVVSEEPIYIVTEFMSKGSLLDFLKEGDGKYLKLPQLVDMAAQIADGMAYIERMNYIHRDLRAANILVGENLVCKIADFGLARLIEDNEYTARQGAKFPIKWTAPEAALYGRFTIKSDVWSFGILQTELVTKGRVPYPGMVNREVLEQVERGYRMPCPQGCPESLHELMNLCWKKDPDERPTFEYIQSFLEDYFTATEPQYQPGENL

The first test has as its target T1, human recombinant Yes [a.a. 2–543 (end)] (Homo sapiens, UniProt P07947).
T1 construct: human recombinant Yes [a.a; 2–543 (end)]; purchased BPS Bioscience 40488
Nature of the test: ADP-Glo kinase assay, inhibition rates of Yes phosphorylation activity (first and second screening). Type of test: biochemical. As to conditions: first screening; mean of n = 4 wells; 10 μmol L−1 compound. The procedure, abridged:
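Hits from a first pass were rescreened after re-dissolution from fresh powder. The first pass reported the mean inhibition rate of quadruplicate wells per compound. Activity was that of recombinant human Yes [a.a. 2–543] kinase, read out with the ADP-Glo ADP-detection method.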
Regarding `COC(=O)c1cc(-c2ccc(F)cc2)nc2c1c(C)nn2C1CCS(=O)(=O)C1` (stereo not drawn) [Compound Z90289702], the “First screening IR (inhibition rate)” value was -1%.

With `Cc1cc(C(=O)CSc2nnc(-c3ccc4c(c3)OCO4)n2-c2ccccc2)c(C)n1C` [Compound Z16254213], the “First screening IR (inhibition rate)” value was 6%.

`CCCCn1c(CN2CCN(C(=O)C3CCCO3)CC2)nc2c1c(=O)[nH]c(=O)n2Cc1ccccc1` (stereo not drawn) [Compound Z105965792]: the “First screening IR (inhibition rate)” value is 1%.

`COc1cc(C)c(Sc2cnc(NC(=O)c3ccc(CCl)cc3)s2)cc1C(=O)N1CCN(C(C)=O)CC1` [Compound Z168829182]: the “First screening IR (inhibition rate)” value came out at 64%.

Take `CCCCCn1c(=O)c2ccccc2n2c(SCC(=O)NC(=O)NC3CCCC(C)C3C)nnc12` (stereo not drawn) [Compound Z17895832]: the “First screening IR (inhibition rate)” value is reported as -5%.

Turning to `Clc1ccc(-c2csc(Nc3ccccc3)n2)s1` [Compound Z238765362], the “First screening IR (inhibition rate)” value stood at 28%.

On to `COc1ccc(/C=C/c2noc(C)c2NC(=O)c2cccs2)cc1` [Compound Z226257158], for which the “First screening IR (inhibition rate)” value was found to be 4%.

As to `Cc1cn2c(/C=C/C(=O)c3ccc(OCC(=O)N(C)C)cc3)c(C)nc2s1` [Compound Z196370782], the “First screening IR (inhibition rate)” value is listed as -2%.

Consider `COc1ccc(-c2cc3c4ccccc4oc4nc(=N)c(C#N)c([nH]2)c43)cc1` [Compound Z85934217], for which the “First screening IR (inhibition rate)” value is recorded as 5%.

As to `Cc1noc(C)c1CCC(=O)Nc1nc2cc(C(F)(F)F)ccc2n1Cc1ccco1` [Compound Z193270258], the “First screening IR (inhibition rate)” value turned out to be 0%.

Consider `O=C(CSc1nnc(-c2cccnc2)n1C1CC1)c1ccc2c(c1)OCCCO2` [Compound Z98268667], for which the “First screening IR (inhibition rate)” value came out at 5%.

For the molecule `Cc1nn(C(C)(C)C)c2nc(C3CC3)cc(C(=O)NC(C)C)c12` [Compound Z441582602], the “First screening IR (inhibition rate)” value is listed as -6%.

In the case of `Cc1ccccc1Nc1nc(N)nc(CSc2nc3ccccc3c(=O)n2CCCN2CCOCC2)n1` [Compound Z19837406], the “First screening IR (inhibition rate)” value was -7%.

For `Oc1cccc(/C=N/Nc2ccnc3cc(Cl)ccc23)c1` [Compound Z49625857], the “First screening IR (inhibition rate)” value is reported as -13%.

`CC1C/C(=C/c2ccccc2[N+](=O)[O-])c2nc3ccccc3c(C(=O)O)c2C1` (stereo not drawn) [Compound Z46107814]: the “First screening IR (inhibition rate)” value is recorded as 10%.

For `O=C(CCC1NC(=O)NC1=O)Nc1ccc(Oc2ccccc2Cl)cc1` (stereo not drawn) [Compound Z168726218], the “First screening IR (inhibition rate)” value is 11%.

For the molecule `COc1ccc(/C=C2/CC(C)Cc3c2nc2ccccc2c3C(=O)O)c(OC)c1` (stereo not drawn) [Compound Z46107821], the “First screening IR (inhibition rate)” value is on record as -10%.

As to `Cc1cccc(-n2c(=O)c3ccccc3n3c(SCC(=O)NC(C)CCCC(C)C)nnc23)c1C` (stereo not drawn) [Compound Z113967060], the “First screening IR (inhibition rate)” value worked out at 15%.

As to `Cc1ccc2c(c1)/C(=N/n1cnc3ccccc31)C(=O)N2` [Compound Z56789395], the “First screening IR (inhibition rate)” value is given as 3%.

Take `CCOC(=O)COc1ccc(C2(C)NC(=O)c3cc(Cl)ccc3N2)cc1` (stereo not drawn) [Compound Z839958866]: the “First screening IR (inhibition rate)” value stood at 5%.

For `CCc1nn2c(Nc3ccc(C(N)=O)cc3)cc(C)nc2c1-c1ccc(F)cc1` [Compound Z1179617819], the “First screening IR (inhibition rate)” value came to 6%.

Regarding `CS(=O)(=O)c1ccc(F)c(S(C)(=O)=O)c1` [Compound Z652718652], the “First screening IR (inhibition rate)” value amounted to 31%.

On to `CC(C)N(CC#N)S(=O)(=O)c1ccccc1S(C)(=O)=O` [Compound Z1411146082], for which the “First screening IR (inhibition rate)” value is -35%.

In the case of `NC(=O)c1ccc(C(=O)N2CCN(c3ccccn3)CC2)cc1` [Compound Z51750245], the “First screening IR (inhibition rate)” value is recorded as 0%.

In the case of `CC1(C)CN(c2nc(-c3ccncc3)nc3c2CCC3)CC[S+]1[O-]` (stereo not drawn) [Compound Z1396757600], the “First screening IR (inhibition rate)” value is 8%.

`Cc1ccc(CNc2nc(-c3ccc(O)c(C(N)=O)c3)cs2)cc1` [Compound Z48851233]: the “First screening IR (inhibition rate)” value came to 10%.

As for `Cc1ccnc(Nc2nc3ccccc3s2)n1` [Compound Z57289339], the “First screening IR (inhibition rate)” value was -13%.

In the case of `CCn1c(-c2ccncc2)nc2c1c(=O)[nH]c(=O)n2Cc1ccccc1` [Compound Z50138431], the “First screening IR (inhibition rate)” value is -3%.

For the molecule `CCCn1nccc1NC(=O)CN(C)C(C)c1cccc(-c2ccncc2)c1` (stereo not drawn) [Compound Z1587266149], the “First screening IR (inhibition rate)” value is recorded as 17%.

Turning to `Cl.Fc1c(-c2ccccc2)nc2ccccc2c1-c1ccccc1` [Compound Z223042658], the “First screening IR (inhibition rate)” value is 30%.

On to `N#Cc1ccsc1NC(=O)CCCSc1nc2ccccc2[nH]1` [Compound Z29082077], for which the “First screening IR (inhibition rate)” value stood at 16%.

For `COCCCn1c(=O)c2ccccc2n2c(=S)n(CN(Cc3ccc(N(C)C)cc3)C(C)C)nc12` [Compound Z729842360], the “First screening IR (inhibition rate)” value is given as -9%.

For the molecule `CCNC(=O)c1ccc(NC(C)C(O)c2ccc(F)cc2)nc1` (stereo not drawn) [Compound Z1798329942], the “First screening IR (inhibition rate)” value worked out at 35%.

As for `CCOC(=O)/C=c1\s/c(=C/c2ccc(N3CCCCC3)c([N+](=O)[O-])c2)c(=O)n1CC(=O)N1CCC(C)CC1` [Compound Z48712692], the “First screening IR (inhibition rate)” value worked out at 25%.

As for `O=S(=O)(c1ccccc1C(F)(F)F)N1CCN(Cc2ncc(-c3ccc(Cl)cc3)o2)CC1` [Compound Z105146244], the “First screening IR (inhibition rate)” value was -3%.

Regarding `COc1cc(/C=N/Nc2ncnc3sc(-c4ccccc4)cc23)cc(OC)c1OC` [Compound Z49894862], the “First screening IR (inhibition rate)” value is reported as 34%.

Consider `CCN(CC)S(=O)(=O)c1ccc(N2CCc3c(sc(N)c3C#N)C2)c([N+](=O)[O-])c1` [Compound Z166707558], for which the “First screening IR (inhibition rate)” value is recorded as 1%.

With `CC1CN(c2ncnc3c2cnn3CCC#N)CCO1` (stereo not drawn) [Compound Z990855820], the “First screening IR (inhibition rate)” value turned out to be 4%.

On to `CN(CCCC(=O)O)S(=O)(=O)c1cc(S(C)(=O)=O)ccc1Cl` [Compound Z353969056], for which the “First screening IR (inhibition rate)” value came out at 44%.

On to `COc1ccc(-n2c(SCC(=O)N3CCCCCC3)nnc2-c2ccc(Cl)cc2)cc1` [Compound Z19871234], for which the “First screening IR (inhibition rate)” value is recorded as 2%.

As to `C=CCn1c(-c2ccc(Cl)cc2)nn(CN2CCN(C(=O)c3ccccc3F)CC2)c1=S` [Compound Z358275910], the “First screening IR (inhibition rate)” value stood at 5%.

`Cc1ccnn1-c1ccc(C(=O)N2CCC(N3CCCC3C(N)=O)CC2)cc1` (stereo not drawn) [Compound Z968814168]: the “First screening IR (inhibition rate)” value is recorded as -8%.

On to `CN(C1CCCCCC1)S(=O)(=O)c1cccc(S(C)(=O)=O)c1` [Compound Z300508876], for which the “First screening IR (inhibition rate)” value is reported as -7%.

On to `Cc1ccc(NC(=O)c2ccc(N3CC(O)=C(c4nc5ccccc5s4)C3=N)cc2)c(O)c1` [Compound Z425227654], for which the “First screening IR (inhibition rate)” value was 1%.

In the case of `COc1ccccc1-c1cc(-c2ccccc2)c2ccccc2n1.Cl` [Compound Z48951051], the “First screening IR (inhibition rate)” value worked out at 3%.

On to `CS(=O)(=O)CCS(=O)(=O)c1ccc(N)cc1` [Compound Z808591212], for which the “First screening IR (inhibition rate)” value was -1%.

Staying with this test, now noted: second screening, dissolved from fresh powder; n = 4; 10 μmol L−1 compound.
In the case of `COc1cc(C)c(Sc2cnc(NC(=O)c3ccc(CCl)cc3)s2)cc1C(=O)N1CCN(C(C)=O)CC1` [Compound Z168829182], the “Second screening IR (inhibition rate)” value is 37%.

For the molecule `COc1cc(/C=N/Nc2ncnc3sc(-c4ccccc4)cc23)cc(OC)c1OC` [Compound Z49894862], the “Second screening IR (inhibition rate)” value came out at 22%.
